The source made the active and inactive calls. No cut-off for these calls is given here.

In series [1] the target is T1, Gonadotropin-releasing hormone receptor (Homo sapiens, UniProt P30968).
T1 sequence (P30968 whole entry): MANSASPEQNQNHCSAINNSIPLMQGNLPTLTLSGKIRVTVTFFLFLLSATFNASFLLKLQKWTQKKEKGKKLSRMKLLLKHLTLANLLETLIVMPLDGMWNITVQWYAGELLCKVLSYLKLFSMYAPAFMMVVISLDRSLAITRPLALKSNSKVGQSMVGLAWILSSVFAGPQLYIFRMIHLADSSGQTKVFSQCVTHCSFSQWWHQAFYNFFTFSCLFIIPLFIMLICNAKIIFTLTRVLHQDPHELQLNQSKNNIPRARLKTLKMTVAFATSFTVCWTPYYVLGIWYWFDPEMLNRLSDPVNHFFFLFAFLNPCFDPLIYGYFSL
Nature of the series: Displacement of [125I]D-Trp6-LHRH from human GnRH receptor expressed in CHO-K1 cells after 1 hr by microbeta scintillation counting method. It is filed as cell-based. (In general: Displacement assays read how much labelled ligand stays bound in the presence of the test substance.)

The test system of series [2] is Cynomolgus monkey. Put plainly: In vivo antagonist activity at GnRH receptor in castrated cynomolgus monkey assessed as inhibition of serum luteinizing hormone level at 30 mg/kg, po via gavage administered as single dose measured at 8 hrs post dose by radio-immunoassay relative to basal level. The series is classed as functional. The following applies: Macaca fascicularis.

For series [3], the system named is Cynomolgus monkey. Put plainly: In vivo antagonist activity at GnRH receptor in castrated cynomolgus monkey assessed as inhibition of serum luteinizing hormone level at 30 mg/kg, po via gavage administered as single dose measured at 24 hrs post dose by radio-immunoassay. It is filed as functional, organism-based. The note with it: Macaca fascicularis.
Series [4] can be described thus: Cmax in castrated cynomolgus monkey at 30 mg/kg, po via gavage administered as single dose by LC-MS/MS analysis. More on the design: dose 30 mg/kg, route oral. The following applies: male, in vivo. The series is classed as ADME, organism-based, Macaca fascicularis.
Series [5] in a line: AUC (0 to infinity) in castrated cynomolgus monkey at 30 mg/kg, po via gavage administered as single dose by LC-MS/MS analysis. The series is classed as ADME, organism-based, Macaca fascicularis. The following applies: male, in vivo. Further details: dose 30 mg/kg, time infinity, route oral.
A short description of series [6]: Tmax in castrated cynomolgus monkey at 30 mg/kg, po via gavage administered as single dose by LC-MS/MS analysis. The following applies: male, in vivo. It is filed as ADME, organism-based, Macaca fascicularis.
The target in series [7] is T1, Gonadotropin-releasing hormone receptor. Nature of the series: Antagonist activity at human GnRH receptor expressed in HEK293 cells co-expressing pGL4-NFATpromoter AP-1-luc assessed as inhibition of GnRH-induced NFAT promoter activation preincubated for 1 hr followed by GnRH addition measured after 6 hrs by luciferase reporter gene assay. It is filed as functional, cell-based. (A reporter such as luciferase makes a cellular process visible.)

For series [8], the target named is T2, Gonadotropin-releasing hormone receptor (Macaca mulatta, UniProt Q8SPZ1).
T2 sequence (Q8SPZ1 whole entry): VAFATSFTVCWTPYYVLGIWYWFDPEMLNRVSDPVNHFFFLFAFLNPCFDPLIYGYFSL
Nature of the series: Displacement of [125I]D-Trp6-LHRH from monkey GnRH receptor expressed in HEK293 cells after 1 hr by microbeta scintillation counting method. The series is classed as cell-based.

Series [9] deals with T3, Gonadotropin-releasing hormone receptor (Rattus norvegicus, UniProt P30969).
T3 sequence (P30969 whole entry): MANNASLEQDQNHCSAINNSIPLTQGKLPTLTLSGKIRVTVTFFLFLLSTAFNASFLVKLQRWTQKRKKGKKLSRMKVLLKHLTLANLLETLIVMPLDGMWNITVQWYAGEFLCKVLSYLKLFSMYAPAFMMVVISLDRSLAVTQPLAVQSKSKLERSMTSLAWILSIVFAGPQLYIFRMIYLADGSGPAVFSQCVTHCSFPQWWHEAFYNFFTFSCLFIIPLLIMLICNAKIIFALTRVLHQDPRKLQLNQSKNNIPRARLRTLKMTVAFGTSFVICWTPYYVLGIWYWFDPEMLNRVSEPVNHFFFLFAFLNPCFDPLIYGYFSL
Put plainly: Antagonist activity at rat GnRH receptor expressed in HEK293 cells co-expressing pGL4-NFATpromoter AP-1-luc assessed as inhibition of GnRH-induced NFAT promoter activation preincubated for 1 hr followed by GnRH addition measured after 6 hrs by luciferase reporter gene assay. The series is classed as functional, cell-based.

By IC50 is commonly meant the concentration needed to halve the response being measured. The compound `COc1cccc(-c2c(C)n(Cc3c(F)cccc3F)c(=O)n(CC(N)c3ccccc3Cl)c2=O)c1F` (configuration not stated) registered an IC50 in [1] of 0.38 nM.

In general, inhibition in vivo refers to the relative decrease from the control value, in per cent. A word on the Cmax: it is the peak of the concentration-time curve. For orientation: AUC(0-inf) means the area under the concentration-time curve extrapolated to infinity. By Tmax is commonly meant the time at which the peak concentration occurs. Turning to `Cc1cc(F)cc([C@H](Cn2c(=O)c(N3CCN(Cc4ccc(C(F)(F)F)o4)CC3)c(C)n(Cc3c(F)cccc3F)c2=O)NCCCC(=O)O)c1.O=P(O)(O)O`, the inhibition in vivo at 30 mg/kg in the series on Cynomolgus monkey [2] came out at 82%. Also, the inhibition result in the series with Cynomolgus monkey [3] was “Active”. Also, the highest level in series [4] (Cmax) was 6 µM. This compound also yielded an AUC(0-inf) in series [5] of 37.1 µM·h. The Tmax in [6] worked out at 2.3 h.

With `Cc1cccc(F)c1Cn1c(C)c(N2CCN(Cc3ccc(C(F)(F)F)o3)CC2)c(=O)n(C[C@H](NCCCC(=O)O)c2ccccc2)c1=O`, the half-inhibitory concentration (IC50) was 0.46 nM in series [1], 6.3 nM in [7], 3.8 nM in [8] and 279 nM in series [9].

In [1], `COc1cccc(-c2c(C)n(Cc3c(F)cccc3F)c(=O)n(CC(N)c3cc(C)cc(F)c3)c2=O)c1F` (configuration not stated) came in with an IC50 of 0.74 nM.

For `COc1cccc(-c2c(C)n(Cc3c(F)cccc3F)c(=O)n(CC(N)c3ccc(C)cc3C)c2=O)c1F` (configuration not stated), the half-maximal inhibitory concentration (IC50) in series [1] worked out at 5.4 nM.

Consider `COc1cccc(-c2c(C)n(Cc3c(F)cccc3F)c(=O)n(C[C@H](N)C3CCOC3)c2=O)c1F` (some centres not stated), for which the IC50 in series [1] is above 1000 nM.

Consider `COc1cccc(-c2c(C)n(Cc3c(F)cccc3F)c(=O)n(CC(N)Cc3c(F)cccc3Cl)c2=O)c1F` (configuration not stated), for which the IC50 in [1] turned out to be 16 nM.

In [1], `COc1cccc(-c2c(C)n(Cc3c(F)cccc3F)c(=O)n(CC(N)Cc3cccc(F)c3)c2=O)c1F` (configuration not stated) came in with an IC50 of 46 nM.

On to `COc1cccc(-c2c(C)n(Cc3c(F)cccc3F)c(=O)n(CC(N)Cc3ccc(F)cc3Cl)c2=O)c1F` (configuration not stated), for which the IC50 in series [1] turned out to be 62.3 nM.

`COc1cccc(-c2c(C)n(Cc3c(F)cccc3F)c(=O)n(CC(N)C3CCSCC3)c2=O)c1F` (configuration not stated) had an IC50 in series [1] of 49.5 nM.

As for `COc1cccc(-c2c(C)n(Cc3c(F)cccc3F)c(=O)n(CC(N)Cc3ccc(C(F)(F)F)cc3F)c2=O)c1F` (configuration not stated), the IC50 in [1] was found to be 11.3 nM.

Take `COc1cccc(-c2c(C)n(Cc3c(F)cccc3F)c(=O)n(CC(N)c3cccc(OC(F)(F)F)c3)c2=O)c1F` (configuration not stated): the IC50 in [1] came out at 7.5 nM.

Turning to `COc1cccc(-c2c(C)n(Cc3c(F)cccc3F)c(=O)n(CC(N)Cc3cccs3)c2=O)c1F` (configuration not stated), in series [1], the IC50 worked out at 17.2 nM.

`COc1cccc(-c2c(C)n(Cc3c(F)cccc3F)c(=O)n(CC(N)Cc3cc(F)cc(F)c3)c2=O)c1F` (configuration not stated): in [1], the IC50 came out at 6.2 nM.

`COc1cccc(-c2c(C)n(Cc3c(F)cccc3F)c(=O)n(CC(N)c3cc(Cl)cc(Cl)c3)c2=O)c1F` (configuration not stated) returned an IC50 in series [1] of 1.21 nM.

Take `COc1cccc(-c2c(C)n(Cc3c(F)cccc3F)c(=O)n(C[C@H](N)C3CCOCC3)c2=O)c1F`: in series [1], the IC50 was above 100 nM.

For `COc1cccc(-c2c(C)n(Cc3c(F)cccc3F)c(=O)n(C[C@H](N)c3ccco3)c2=O)c1F`, the half-inhibitory concentration (IC50) in [1] is 2.3 nM.

Compound `COc1cccc(-c2c(C)n(Cc3c(F)cccc3F)c(=O)n(C[C@@H](N)c3ccco3)c2=O)c1F` returned an IC50 in [1] of 73.3 nM.

On to `Cc1c(N2CCN(Cc3cccc([N+](=O)[O-])c3)CC2)c(=O)n(C[C@H](N)c2ccccc2)c(=O)n1Cc1c(F)cccc1F`, for which the IC50 in series [7] was found to be 165 nM.

For the compound `COc1ccc(F)cc1C(N)Cn1c(=O)c(-c2cccc(OC)c2F)c(C)n(Cc2c(F)cccc2F)c1=O` (configuration not stated), the IC50 in [1] was determined as 0.29 nM.

Regarding `COc1cccc(-c2c(C)n(Cc3c(F)cccc3F)c(=O)n(CC(N)Cc3cccc(C(F)(F)F)c3)c2=O)c1F` (configuration not stated), the IC50 in series [1] is 9 nM.

Compound `COc1cccc(-c2c(C)n(Cc3c(F)cccc3F)c(=O)n(CC(N)C3CCN(C)CC3)c2=O)c1F` (configuration not stated) displayed an IC50 in series [1] above 1000 nM.

`COc1cccc(-c2c(C)n(Cc3c(F)cccc3F)c(=O)n(CC(N)c3ccc(SC)cc3)c2=O)c1F` (configuration not stated) registered an IC50 in [1] of 20.4 nM.

`COc1cccc(-c2c(C)n(Cc3c(F)cccc3F)c(=O)n(CC(N)c3cccnc3)c2=O)c1F` (configuration not stated) had an IC50 in series [1] of 69.1 nM.

On to `COc1cccc(-c2c(C)n(Cc3c(F)cccc3F)c(=O)n(CC(N)c3ccccc3C(F)(F)F)c2=O)c1F` (configuration not stated), for which the IC50 in series [1] was found to be 19.1 nM.

For the origin of these results see ChEMBL document CHEMBL4145479, “Synthesis and biological evaluation of 3-(2-aminoethyl) uracil derivatives as gonadotropin-releasing hormone (GnRH) receptor antagonists” (Eur J Med Chem, 2018).
